Results published in publication PMC6259751, “Investigating Spectrum of Biological Activity of 4- and 5-Chloro-2-hydroxy-N-[2-(arylamino)-1-alkyl-2-oxoethyl]benzamides” (Molecules, 2011).
≈ marks a conversion by molar mass, not a printed value. Where “and” joins values, the source holds several entries; their conditions need not be identical. Equal entries are not always repeated. Where two headings read alike, the source gives them in different places.

What was measured:
[1] = Lipophilicity determination by RP-HPLC (capacity factor k / log k); format: physicochemical; conditions: C18 column, MeOH 70% / H2O 30%, isocratic
Description: Hydrophobicities (log P/Clog P) of compounds 8 and 9 were calculated using two commercially available programs (ChemOffice Ultra 10.0 and ACD/LogP) and measured by means of RP-HPLC determination of capacity factors k with subsequent calculation of log k. The procedure was performed under isocratic conditions with methanol as an organic modifier in the mobile phase using an end-capped non-polar C18 stationary RP column. The results are shown in Table 1 and illustrated in Figure 1.
A Waters Alliance 2695 XE HPLC separation module and a Waters Photodiode Array Detector 2996 (Waters Corp., Milford, MA, USA) were used. A Symmetry® C18 5 μm, 4.6 × 250 mm, Part No. WAT054275 (Waters Corp., Milford, MA, USA) chromatographic column was used. The HPLC separation process was monitored by Empower™ 2 Chromatography Data Software, Waters 2009 (Waters Corp., Milford, MA, USA). A mixture of MeOH p.a. (70%) and H2O-HPLC – Mili-Q Grade (30%) was used as a mobile phase. The total flow of the column was 1.0 mL/min, injection volume, 30 μL, column temperature, 30 °C and sample temperature, 10 °C. The detection wavelength of 210 nm was chosen. The KI methanolic solution was used for the dead time (tD) determination. Retention times (tR) were measured in minutes. The capacity factors k were calculated using the Empower™ 2 Chromatography Data Software according to formula k = (tR - tD)/tD, where tR is the retention time of the solute, whereas tD denotes the dead time obtained using an unretained analyte. Log k, calculated from the capacity factor k, is used as the lipophilicity index converted to log P scale.

[2] = tested on: Mycobacterium tuberculosis MTB CNCTC My 331/88; test: In vitro antimycobacterial evaluation; format: cell-based; conditions: IC90 value
[3] = tested on: Mycobacterium avium MA CNCTC My 330/88; test: In vitro antimycobacterial evaluation; format: cell-based; conditions: IC90 value
[4] = tested on: Mycobacterium kansasii MK CNCTC My 235/80; test: In vitro antimycobacterial evaluation; format: cell-based; conditions: IC90 value
[5] = tested on: Candida tropicalis 156; test: In vitro antifungal susceptibility testing (broth microdilution); format: cell-based; conditions: M27-A2 for yeasts, IC80 value
[6] = tested on: Trichophyton mentagrophytes 445; test: as above; format: cell-based; conditions: M38-A for moulds, IC50 value, read-out: MIC TM
[7] = tested on: photosynthetic electron transport (PET) in spinach chloroplasts; test: Inhibition of photosynthetic electron transport (PET) in spinach chloroplasts; format: biochemical, Spinacia oleracea L.; conditions: DCPIP photoreduction
Description: Chloroplasts were prepared from spinach (Spinacia oleracea L.) according to Masarovicova and Kralova. The inhibition of photosynthetic electron transport (PET) in spinach chloroplasts was determined spectrophotometrically (Genesys 6, Thermo Scientific, USA), using an artificial electron acceptor 2,6-dichlorophenol-indophenol (DCIPP) according to Kralova et al., and the rate of photosynthetic electron transport was monitored as a photoreduction of DCPIP. The measurements were carried out in phosphate buffer (0.02 mol/L, pH 7.2) containing sucrose (0.4 mol/L), MgCl2 (0.005 mol/L) and NaCl (0.015 mol/L). The chlorophyll content was 30 mg/L in these experiments and the samples were irradiated (~100 W/m^2) from 10 cm distance with a halogen lamp (250 W) using a 4 cm water filter to prevent warming of the samples. The studied compounds were dissolved in DMSO due to their limited water solubility. […] The inhibitory efficiency of the studied compounds was expressed by IC50 values, i.e. by molar concentration of the compounds causing 50% decrease in the oxygen evolution rate relative to the untreated control.

[8] = tested on: Staphylococcus aureus CCM 4516/08; test: In vitro antibacterial susceptibility testing (broth microdilution); conditions: read-out: MIC SA
[9] = tested on: methicilin resistant Staphylococcus aureus H 5996/08; test: as above; conditions: MRSA, read-out: MIC MRSA
[10] = tested on: Staphylococcus epidermidis H 6966/08; test: as above; conditions: read-out: MIC SE
[11] = tested on: Enterococcus sp. J 14365/08; test: as above; conditions: read-out: MIC EF

Row | Structure (SMILES) | log k [1] | MIC ([2]; 14h) | MIC ([2]; 21h) | MIC ([3]; 14h) | MIC ([3]; 21h) | MIC ([4]; 14h) | MIC ([4]; 21h) | MIC ([5]; 24h) | MIC ([5]; 48h) | MIC ([6]; 72h) | MIC ([6]; 120h) | IC50 [7] | MIC ([8]; CCM4516, 24 h) | MIC ([8]; CCM4516, 48 h) | MIC ([9]; 24 h) | MIC ([9]; 48 h) | MIC ([10]; H6966/08, 24 h) | MIC ([10]; H6966/08, 48 h) | MIC ([11]; SP.J14365/08, 24 h) | MIC ([11]; SP.J14365/08, 48 h)
1 | O=C(CNC(=O)c1cc(Cl)ccc1O)Nc1cccc(Cl)c1 [8a] | 0.2439 | 125 µM (≈ 42.4 µg/mL) | 125 µM (≈ 42.4 µg/mL) | 62.5 µM (≈ 21.2 µg/mL) | 62.5 µM (≈ 21.2 µg/mL) | 250 µM (≈ 84.8 µg/mL) | 250 µM (≈ 84.8 µg/mL) | 125 µM (≈ 42.4 µg/mL) | 125 µM (≈ 42.4 µg/mL) | 125 µM (≈ 42.4 µg/mL) | 125 µM (≈ 42.4 µg/mL) | 379 µM | > 250 µM | > 250 µM | > 250 µM | > 250 µM | > 250 µM | > 250 µM | > 250 µM | > 250 µM
2 | CC(C)[C@H](NC(=O)c1cc(Cl)ccc1O)C(=O)Nc1cccc(Cl)c1 [8d] | 0.6124 | 32 µM (≈ 12.2 µg/mL) | 62.5 µM (≈ 23.8 µg/mL) | 125 µM (≈ 47.7 µg/mL) | 125 µM (≈ 47.7 µg/mL) | 62.5 µM (≈ 23.8 µg/mL) | 125 µM (≈ 47.7 µg/mL) | > 125 µM | > 125 µM | > 125 µM | > 125 µM | 13.8 µM | > 125 µM | > 125 µM | > 125 µM | > 125 µM | > 125 µM | > 125 µM | > 125 µM | > 125 µM
3 | CC(C)[C@@H](NC(=O)c1cc(Cl)ccc1O)C(=O)Nc1cccc(Cl)c1 [8e] | 0.61 and 0.6114 | 32 µM (≈ 12.2 µg/mL) | 62.5 µM (≈ 23.8 µg/mL) | 62.5 µM (≈ 23.8 µg/mL) | 125 µM (≈ 47.7 µg/mL) | 62.5 µM (≈ 23.8 µg/mL) | 125 µM (≈ 47.7 µg/mL) | 15.6 µM (≈ 5.96 µg/mL) | 62.5 µM (≈ 23.8 µg/mL) | 125 µM (≈ 47.7 µg/mL) | 125 µM (≈ 47.7 µg/mL) | 20.4 µM | 15.6 µM (≈ 5.96 µg/mL) | 15.6 µM (≈ 5.96 µg/mL) | 31.2 µM (≈ 11.9 µg/mL) | 31.2 µM (≈ 11.9 µg/mL) | 31.2 µM (≈ 11.9 µg/mL) | 31.2 µM (≈ 11.9 µg/mL) | 62.5 µM (≈ 23.8 µg/mL) | 250 µM (≈ 95.3 µg/mL)
4 | O=C(N[C@@H](Cc1ccccc1)C(=O)Nc1cccc(Cl)c1)c1cc(Cl)ccc1O [8f, N-{(1S)-1-benzyl-2-[(3-chlorophenyl)amino]-2-oxoethyl}-5-chloro-2-hydroxybenz-amide] | 0.70 and 0.7098 | 62.5 µM (≈ 26.8 µg/mL) | 125 µM (≈ 53.7 µg/mL) | 125 µM (≈ 53.7 µg/mL) | 250 µM (≈ 107 µg/mL) | 62.5 µM (≈ 26.8 µg/mL) | 125 µM (≈ 53.7 µg/mL) | 31.2 µM (≈ 13.4 µg/mL) | 125 µM (≈ 53.7 µg/mL) | 125 µM (≈ 53.7 µg/mL) | 125 µM (≈ 53.7 µg/mL) | 12.3 µM | > 500 µM | > 500 µM | > 500 µM | > 500 µM | > 500 µM | > 500 µM | > 500 µM | > 500 µM
5 | O=C(N[C@@H](Cc1ccccc1)C(=O)Nc1ccc(Cl)cc1)c1cc(Cl)ccc1O [8k] | 0.7394 | 16 µM (≈ 6.87 µg/mL) | 16 µM (≈ 6.87 µg/mL) | 32 µM (≈ 13.7 µg/mL) | 32 µM (≈ 13.7 µg/mL) | 32 µM (≈ 13.7 µg/mL) | 62.5 µM (≈ 26.8 µg/mL) | 125 µM (≈ 53.7 µg/mL) | > 125 µM | 125 µM (≈ 53.7 µg/mL) | > 125 µM | 29.8 µM | > 500 µM | > 500 µM | > 500 µM | > 500 µM | > 500 µM | > 500 µM | > 500 µM | > 500 µM
6 | CC(C)[C@H](NC(=O)c1cc(Cl)ccc1O)C(=O)Nc1ccc(Br)cc1 [8s] | 0.6709 | 62.5 µM (≈ 26.6 µg/mL) | 62.5 µM (≈ 26.6 µg/mL) | 62.5 µM (≈ 26.6 µg/mL) | 62.5 µM (≈ 26.6 µg/mL) | 62.5 µM (≈ 26.6 µg/mL) | 125 µM (≈ 53.2 µg/mL) | > 125 µM | > 125 µM | > 125 µM | > 125 µM | 26.2 µM | > 125 µM | > 125 µM | > 125 µM | > 125 µM | > 125 µM | > 125 µM | > 125 µM | > 125 µM
7 | O=C(N[C@@H](Cc1ccccc1)C(=O)Nc1ccc(Br)cc1)c1cc(Cl)ccc1O [8u] | 0.7779 | 32 µM (≈ 15.2 µg/mL) | 32 µM (≈ 15.2 µg/mL) | 250 µM (≈ 118 µg/mL) | 250 µM (≈ 118 µg/mL) | 62.5 µM (≈ 29.6 µg/mL) | 125 µM (≈ 59.2 µg/mL) | 500 µM (≈ 237 µg/mL) | > 500 µM | 500 µM (≈ 237 µg/mL) | > 500 µM | 31.2 µM | > 125 µM | > 125 µM | > 125 µM | > 125 µM | > 125 µM | > 125 µM | > 125 µM | > 125 µM
